Reference: patent publication US20230105108A1, “COMPOUNDS FOR THE TREATMENT OF BACTERIAL INFECTIONS AND POTENTIATION OF ANTIBIOTICS” (GEORGIA STATE UNIVERSITY RESEARCH FOUNDATION, INC., priority 2019, published 2023)
Where a name gives a salt, the structure may show the parent alone. Read-outs that look alike come from different tables or passages of the source. Marks after values point to notes of the source that are not given here.

Columns and labels:
[1] = system: E. coli (ATCC 25922); test: MIC determination, sensitization fold and FIC index on E. coli; assay type: cell-based; conditions: for MIC: Escherichia coli, ATCC25922, 24 h
How it was run: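 E. coli in cation-adjusted Mueller Hinton II, 5×10^5 CFU/ml, 24 h at 37 °C shaking; rifampicin two-fold serial dilutions with or without fixed sensitizer (10 μM).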

[2] = IC50 of Table 7 (cell line not stated); assay type: cell-based
[3] = system: H9c2 (ATCC CRL-1446) cells; test: Cytotoxicity in H9c2 cells (CCK-8); assay type: cell-based; conditions: H9c2 cell line
How it was run: (§1)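 H9c2 cells were grown in DMEM with 10% FBS, seeded the day before, and exposed to a range of di-amidine concentrations for 24 h at 37 °C, 5% CO2. Viability was read by CCK-8 after 3 h at 37 °C as absorbance at 450 nm.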

[4] = system: HEK293 cells; test: Cytotoxicity on mammalian cells (CCK-8), HEK293; assay type: cell-based; conditions: for CC50: HEK293 cell line, 24 h; for IC50: Homo sapiens, HEK293
How it was run: (§2)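 Cells seeded a day ahead to ~80% confluency, exposed to varied compound concentrations for 24 h at 37° C, 5% CO2. CCK-8 added for a further 2 h and OD 450 nm read; viability expressed as percent of untreated control.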

[5] = Cytotoxicity in H9c2 cells (CCK-8); assay type: cell-based; conditions: rat, H9c2 cells; H9c2 cell line
How it was run: as §1

[6] = system: NIH3T3 cells; test: Cytotoxicity on mammalian cells (CCK-8), NIH3T3; assay type: cell-based; conditions: 3T3 cell line; 24 h
How it was run: as §2

[7] = system: M. smegmatis; test: MIC on mycobacteria; assay type: cell-based, Mycobacterium smegmatis; conditions: Mycolicibacterium smegmatis, read-out: MIC on mycobacteria
[8] = system: B. subtilis; test: MIC determination and sensitization fold on B. subtilis; assay type: cell-based; conditions: for Sensitization fold: erythromycin
[9] = system: MRSA (ATCC 33592); test: MIC determination and sensitization fold on MRSA; assay type: cell-based, methicillin-resistant Staphylococcus aureus; conditions: MRSA, rifampicin
Protocol: Bacteria strains: E. coli (ATCC 25922), A. baumannii (ATCC 17978), K. pneumoniae (43816), S. maltophilia (ATCC 31559), S. typhimurium (ATCC 14028), C. werkmanii (ATCC 51114), S. aureus (ATCC 12600) and methicillin-resistant Staphylococcus aureus (MRSA, ATCC 33592) strains were purchased from ATCC. NR698 was provided.
Bacteria culture and MICs determination: Gram-negative bacteria were cultured in Mueller Hinton II cation-adjusted broth. Gram-positive bacteria were cultured in LB broth. Mycobacterium smegmatis was cultured in Middlebrook 7H9 Broth. MICs of antibiotics itself were determined by performing two-fold serial dilutions of antibiotics. MICs of antibiotics in the presence of bacterial sensitizers were determined by performing two-fold serial dilutions of antibiotics with or without a constant concentration of bacterial sensitizers. The MICs tests were performed on 96-well plates with a final volume of 200 μl Mueller Hinton II cation-adjusted broth in each well. Each well was inoculated with 5×10^5 CFU/ml bacteria and was incubated for 24 h at 37° C. with continuous shaking of 200 rpm. The bacterial density was then determined by OD600. Bacterial growth %=OD600 of antibiotic treatment group/OD600 of antibiotic non-treatment group. MICs was determined as the concentrations that inhibit more than 90% of bacteria growth.
Sensitization fold determination and FIC index calculations: Sensitization fold=MIC of antibiotic only/MIC of antibiotic with bacterial sensitizer. […] Since the MICs were determined by performing two-fold serial dilutions of antibiotic, so the sensitization fold can is the times of 2.
Bacteria strains (as indicated in Table 5B) were cultured with rifampicin at various concentrations in the presence or absence of 10 μM of the indicated compound for 20 h at 37° C. The MIC, sensitization, cytotoxicity, and MIC on mycobacteria were tested according to methods described herein. […] The sensitization activities of compounds on MRSA were tested using rifampicin. The sensitization activities of compounds on E. coli were tested using rifampicin.

[10] = system: K. pneumoniae (43816); test: MIC, sensitization fold and FIC index on K. pneumoniae; assay type: cell-based
[11] = system: A. baumannii (ATCC 17978); test: MIC, sensitization fold and FIC index on A. baumannii; assay type: cell-based
[12] = system: E. coli; test: Ex vivo skin burn infection model, wild-type E. coli; conditions: human skin burn, hypromellose gel, 24 hours; 4‰ (w/w) novobiocin, 1.5‰ MD-124
Protocol: To achieve topical application, compounds were formulated as hypromellose gel. […] After that, skin was loaded with hypromellose gel with different antibiotics and cultured at 37° C. for 24 hours. After 24 hours incubation, the skin sample was homogenized and the supernatants were serially diluted and plated on agar plates, from which bacterial counts on the skin was calculated. […] 1‰ polymyxin B hypromellose gel was used as positive control.

[13] = system: NDM-1 expressing E. coli strain; test: microbe, parasite or virus in culture; assay type: cell-based; conditions: NDM-1 expressing E. coli towards the antibiotic
[14] = system: E. coli; test: Lysozyme assay (outer membrane disruption); assay type: cell-based; conditions: 50 μg/ml lysozyme, 50 μg/ml sensitizer, 10 min
Protocol: Lysozyme assay to evaluate the disruption of Gram-negative bacteria out membrane by bacterial sensitizers. Lysozyme assay was performed based on literature reported method. E. coli was cultured in Mueller Hinton II cation-adjusted broth for overnight, centrifuged at 3000 g for 10 min, washed with HEPES buffer (pH=7.2) and then centrifuged again to obtain bacteria pallet. The pallet was then gently resuspended in HEPES buffer with 5 mM NaCN to obtain an E. coli suspension with OD600 between 0.8˜1.0. On a 96-well plate, each well was supplied with 100 μl lysozyme solution (100 μg/ml) containing 50 or 100 μg/ml bacterial sensitizers in HEPES buffer. To each well was added 100 μl E. coli suspension. The final concentration of lysozyme was 50 μg/ml. The plate was incubated at room temperature for 10 min and the OD600 was recorded. E. coli was also incubated with bacterial sensitizers in the absence of lysozyme to test if bacterial sensitizers would directly induce bacterial lysis. E. coli that was incubated with lysozyme alone or E. coli without any treatment were also used as negative control.

[15] = system: E. coli (lipid A part of LPS); test: Dansyl-PMBN displacement assay; assay type: binding; conditions: E. coli with 10 μM Dansyl-PMBN; sensitizer 0 to 200 μM
Protocol: Panel (C) depicts a Dansyl-PMBN displacement assay. […] The fluorescent intensity of 10 μM Dansyl-PMBN in HEPES buffer was recorded as baseline F0. Fluorescent intensity/%=(F1−Fx)/(F1−F0). […] All results are triplicates.
Dansyl-PMBN displacement assay. Dansyl-PMBN was synthesized according to literature procedure. Dansyl-PMBN was dissolved in H2O to make 500 μM stock. Bacterial sensitizers were dissolved in ethanol to make 10 mM stock solutions. […] The E. coli stock was centrifuged at 3000 g for 10 min, washed with HEPES buffer (pH=7.2) and then centrifuged again to obtain bacteria pallet. The pallet was then gently resuspended in HEPES buffer to obtain a E. coli suspension with OD600 about 0.3. The experiment was performed on 96-well plates. Each well was supplied with 100 μl coli suspension with 10 μM Dansyl-PMBN, then to each well, different concentrations of bacterial sensitizers were added to achieve a final concentration ranging from 0 to 200 μM.
Mg^2+ can bridge between adjacent lipid A and enhance the membrane integrity. […] This phenomenon was also observed on MD-100. The culture medium for E. coli is Muller Hinton Broth (Cation adjusted), which already has at least 0.5 mM Mg^2+, so the “zero concentration point of Mg^2+” in FIG. 4 represents the amount of exogenous Mg^2+, not the total Mg^2+ in the culture medium. […] A fluorescent conjugate of a polymyxin-B derivative (Dansyl-PMBN, Scheme 3), which would show increased fluorescent intensity after binding to the lipid A part of LPS, was used to further probe this issue. In the presence of another component that can also binding to lipid A, Dansyl-PMBN would be replaced, leading to decreased fluorescent intensity.

[16] = E. coli, rifampicin, 10 μg/ml bacterial sensitizer
[17] = E. coli, compound alone, read-out: MIC
[18] = E. coli, rifampicin, compound at 25 μM
[19] = 10 μM compound, rifampicin as the antibiotic (Table 6)
[20] = E. coli, rifampicin, compound at 10 μM

N=C(N)Nc1ccc(-c2ccc(-c3nc4ccc(NC(=N)N)cc4[nH]3)o2)cc1 [DB704]
Sensitization fold [1, 16]: 16^a fold
IC50 [2]: 100 µM

N=C(N)N/N=C/c1ccc(-c2ccc(-c3ccc(/C=N/NC(=N)N)cc3)s2)cc1 [DB1079]
Sensitization fold ([1]; E. coli, rifampicin, 5 μg/ml bacterial sensitizer): 64^b fold
IC50 [2]: 12 µM

N=C(N)c1ccc(-c2ccc(-c3ccc(C(=N)N)cc3)[se]2)cc1 [DB1213]
Sensitization fold [1, 16]: 32^a fold
IC50 [2]: 50 µM

N=C(N)c1ccc(OCc2ccc(-c3ccc(C(=N)N)cc3)cc2)cc1 [DB2542]
CC50 [3]: 100 µM
MIC [1, 17]: 50 µM

N=C(N)c1ccc(OCc2cccc(COc3ccc(C(=N)N)cc3F)c2F)c(F)c1 [DB2558, 1,3-Bis {(4-amidino-2-fluoro)-phenoxymethyl}-2-fluorobenzene dihydrochloride]
CC50 [4]: 100 µM
CC50 at 24 h [5]: 50 µM
Sensitization fold ([1]; E. coli, rifampicin, compound at 12 μM): 4-fold at 12 μM.
Sensitization fold [1, 18]: 8-fold at 25 μM;
MIC [1, 17]: 50 µM
CC50 [6]: 100 µM
MIC ([7]; M. smegmatis): 6 to 12 µM

N=C(N)c1ccc(OCc2cccc(COc3ccc(C(=N)N)cc3)c2)cc1 [DB2559, 1,3-Bis {(4-amidino)-phenoxymethyl}-benzene dihydrochloride]
CC50 [3]: 100 µM
Sensitization fold [1, 18]: 8-fold at 25 μM;
Sensitization fold ([1]; E. coli, rifampicin, compound at 50 μM): 16-fold at 50 μM;
MIC [1]: 100 µM
MIC [7]: 12 µM
Sensitization fold ([8]; B. subtilis, compound at 6 μM): 4-fold at 6 μM
Sensitization fold ([8]; B. subtilis, compound at 12 μM): 8-fold at 12 μM;
MIC ([8]; Bacillus subtilis, 24 h, B. subtilis, compound alone, read-out: MIC): 25 µM

COc1cc(C(=N)N)ccc1OCc1cc(C)cc(COc2ccc(C(=N)N)cc2OC)c1 [MD-103, 4,4′-(((5-methyl-1,3-phenylene)bis(methylene))bis(oxy))bis(3-methoxybenzimidamide) dihydrochloride]
CC50 [4]: 100 µM
IC50 [4]: 100 µM
CC50 at 24 h [5]: > 100 µM
Sensitization fold [1, 19]: 2 fold
Sensitization fold [1, 20]: 2-fold at 10 μM
Sensitization fold [1, 18]: 4-fold at 25 μM
MIC [1]: 50 µM
Sensitization fold ([9]; compound at 6 μM): 2 to 4-fold at 6 μM
Sensitization fold ([9]; compound at 12 μM): 8 to 16-fold at 12 μM,
CC50 [6]: 100 µM
MIC [7]: 12.5 µM

Cc1cc(COc2ccc(NC(=N)N)cc2)cc(COc2ccc(NC(=N)N)cc2)c1 [MD-125, 1,1′-((((5-methyl-1,3-phenylene)bis(methylene))bis(oxy))bis(4,1-phenylene)) diguanidine di(trifluoroacetate)]
CC50 [4]: 100 µM
IC50 [4]: 100 µM
CC50 [3]: 100 µM
Sensitization fold [1, 19]: 8 fold
Sensitization fold [1, 20]: 8-fold at 10 μM
Sensitization fold [1, 18]: 32-fold at 25 μM
MIC [1]: 100 µM
CC50 [6]: 100 µM

CO[C@@H]1[C@@H](OC(N)=O)[C@@H](O)[C@H](Oc2ccc3c(O)c(NC(=O)c4ccc(O)c(CC=C(C)C)c4)c(=O)oc3c2C)OC1(C)C [Novobiocin, reference compound]
Sensitization fold ([1]; E. coli towards the antibiotic, MD-124 5 μg/ml): 64 fold
MIC of AB with MD-124 ([1]; E. coli, MD-124 concentration 5 μg/ml): 1.6 µg/mL
MIC ([1]; E. coli (wild type), antibiotic alone, read-out: MIC of AB only): 100 µg/mL
MIC of AB with 5 μg/ml MD-124 ([10]; K. pneumoniae): 6.4 µg/mL
Sensitization fold with 5 μg/ml MD-124 ([10]; K. pneumoniae towards the antibiotic): 32 fold
Sensitization fold with 5 μg/ml MD-124 ([11]; A. baumannii towards the antibiotic): 32 fold
FIC index between MD-124 and antibiotic ([11]; A. baumannii, checkerboard assay): 0.20
E. coli growth inhibition / bacterial load vs vehicle group [12]: neither 4‰ (w/w) novobiocin nor 1.5‰ MD-124 themselves achieved significant E. coli growth inhibition
sensitization fold with 5.5 μg/ml DB2560 ([8]; B. subtilis towards the antibiotic): 4 fold
Sensitization fold with 5 μg/ml MD-124 [13]: 32 fold

N=C(N)c1ccc(OCCCCCOc2ccc(C(=N)N)cc2)cc1 [pentamidine, reference compound]
Sensitization fold ([1]; E. coli, rifampicin, 20 μg/ml bacterial sensitizer): 4 fold
bacterial lysis by lysozyme in the presence of sensitizer [14]: led to bacterial lysis
displacement of Dansyl-PMBN (fluorescent intensity) [15]: able to displace Dansyl-PMBN although not as much as MD-124
